These results are taken from US20240262826A1, “WILD TYPE KIT INHIBITORS” (Blueprint Medicines Corporation, priority 2022, published 2024).

pIC50: −log10 of the molar value.

Series [1] addresses T1, wild type c-kit (Homo sapiens (Human), UniProt P10721). The series is described as follows: PathScan phospho c-kit (Tyr719) sandwich ELISA in SCF-stimulated M-07e cells (pKIT assay). Format: cell-based. The conditions noted are these: ELISA assay (values not marked *). The gist of the method: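 Tyr719-phosphorylated c-kit was measured by colorimetric (TMB) sandwich ELISA in lysates of M-07e cells. Cells were starved 4 h without serum or GM-CSF, dosed 60 min at 37 °C with compound (8 points, duplicate, 0.25% DMSO), and stimulated 10 min with human SCF (500 ng/mL as added). IC50 values came from 4-parameter logistic regression.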
For orientation: In an ELISA, binding on a coated surface is turned into a signal by an enzyme label.

The target in another series is Exon 11 KIT (Homo sapiens (Human), UniProt P10721, V560G). The series is described as follows: Exon 11 HMC1.1 autophosphorylation assay (Phospho-Y719 c-KIT ELISA). The series is classed as cell-based. The conditions noted are these: 90 minutes, read-out: IC50 HMC1.1 pKIT. How it is done:
Exon 11 HMC1.1 autophosphorylation assay: 50,000 HMC1.1 cells were incubated in 50 ul culture media (phenol-red free IMDM, no iron, no serum) in each well of a 96-well plate and serum starved 4 hours in a tissue culture incubator (5% CO2, 37° C.). An 8-point dose concentration series of compound were then added to the cells in a volume of 7 ul to each well. After 90 minutes, 14 ul of 5× AlphaLISA Lysis Buffer (Perkin Elmer) supplemented with a protease and phosphatase inhibitor cocktail (Cell Signaling Technologies) was added to each well and shaken at […] for 5 minutes at 4° C. Phospho-Y719 c-KIT ELISA kit from Cell Signaling Technology was used to assess levels of phospho KIT.

For series [2], the target named is human P-glycoprotein (P-gp, MDR1) (Homo sapiens (Human), UniProt P08183). Briefly: MDCK-MDR1 cell monolayer drug transport assay (P-gp efflux ratio). Format: in vitro ADME. The conditions noted are these: pH 7.4, MDCK-MDR1 cells, 1 uM concentration of compound, read-out: Pgp Efflux Ratio, 1 uM. An outline of the steps:
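P-gp substrate potential tested in MDCK-MDR1 monolayers on Transwell supports, cultured 4-8 days; monolayers with TEER <42 ohms·cm2 discarded. Transport run in HBSS (10 mM HEPES, pH 7.4) at 37° C with compound working solution at 1 μM.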

Series [3] relates to NIH3T3 cell lines that overexpressed the kit mutation exon 9. The series is described as follows: Exon 9 assay: cell viability (CellCounting Lite 2.0), 72 hours. The series is classed as cell-based. The conditions noted are these: Mus musculus, read-out: IC50 NIH3T3-cKit-AY502-3dup. The protocol:
(§1) Exon 9 assay: The NIH3T3 cell lines that overexpressed the kit mutation exon 9 (or parental cells) were resuscitated and well cultured, and the cells were collected and seeded in 96-well plates at 3000/well, then the compounds were added to the 96 well plates in a gradient dilution, and the plates were incubated in an incubator for 72 hours.
(§2) After 72 hours of incubation, an equal volume of CellCounting
(§3) Lite 2.0 Luminescent Cell Viability reagent was added to the 96-well plates to detect the cell viability. The data were analyzed using GraphPad Prism 7.0 softwar e, and the nonlinear S-curve regression was used to fit the data to obtain the dose-effect curve, and the IC50 value was calculated accordingly.

For a further series, the system named is NIH3T3 parental cells. Briefly: Exon 9 assay, parental cells: cell viability (CellCounting Lite 2.0), 72 hours. The series is classed as cell-based. The conditions noted are these: Mus musculus. The protocol:
as §1, §2, §3

The target in series [4] is T1, wild type c-kit. Briefly: MSD Phospho c-Kit (Tyr721) Assay Whole Cell Lysate Kit in SCF-stimulated M-07e cells (pKIT assay, marked *). The conditions noted are these: Meso Scale Discovery (MSD) assay (values marked *). The series is classed as cell-based. How it is done:
The ability of compounds of the disclosure (described herein as test compounds) to inhibit autophosphorylation of wild type c-kit was measures using either a PathScan phospho c-kit (Tyr719) sandwich ELISA (CST #7298) or a Phospho c-Kit (Tyr721) Assay Whole Cell Lysate Kit (MSD: 515DPD/catalog number K15119D-2).
For the MSD Phospho c-Kit (Tyr721) Assay Whole Cell Lysate Kit: M-07e cells were maintained in Iscove's Modified Dulbecco's Medium (IMDM) media supplemented with 10% FBS, 5 ng/ml granulocyte-macrophage colony-stimulating factor (GM-CSF) and 100 units/mL Penicillin-Streptomycin, and grown in a 37° C., 5% CO2 in a humidified tissue culture incubator. M-07e cells were washed with phenol red-free, serum-free, GM-CSF-free IMDM and seeded in the same media at 100,000 cells well in a volume of 50 ul in a 96-well U-bottom plate. The cells were incubated for 4 hours, followed by the addition of test compound at a final DMSO concentration of 0.25% for 60 min at 37° C. to generate an 8-point dose concentration series of test compounds. The cells were stimulated with 50 ng/ml human SCF for 10 min at room temperature. Cells were then lysed by the addition of 16.5 ul of PerkinElmer 5× AlphaLISA Lysis Buffer supplemented with Cell Signaling Technologies protease/phosphatase inhibitor. Lysis was encouraged by shaking at 4° C. for 30 minutes.
25 ul of lysate was transferred to the MSD plate and the plate was shaken at 700 rpm at room temperature for one hour, followed by washing 3 times with Tris wash buffer. Next, 25 ul of detection antibody solution (diluted from 50× stock in antibody dilution buffer) was added. After shaking at 700 rpm at room temperature for one hour, the plate was washed 3 times with Tris wash buffer. The plate was then read on MSD Sector Imager immediately after 150 ul of reading buffer added to each well.
An IC50 was calculated using a 4-parameter logistic nonlinear regression.

Chain of Exon 11 KIT (P10721 26-976 V560G): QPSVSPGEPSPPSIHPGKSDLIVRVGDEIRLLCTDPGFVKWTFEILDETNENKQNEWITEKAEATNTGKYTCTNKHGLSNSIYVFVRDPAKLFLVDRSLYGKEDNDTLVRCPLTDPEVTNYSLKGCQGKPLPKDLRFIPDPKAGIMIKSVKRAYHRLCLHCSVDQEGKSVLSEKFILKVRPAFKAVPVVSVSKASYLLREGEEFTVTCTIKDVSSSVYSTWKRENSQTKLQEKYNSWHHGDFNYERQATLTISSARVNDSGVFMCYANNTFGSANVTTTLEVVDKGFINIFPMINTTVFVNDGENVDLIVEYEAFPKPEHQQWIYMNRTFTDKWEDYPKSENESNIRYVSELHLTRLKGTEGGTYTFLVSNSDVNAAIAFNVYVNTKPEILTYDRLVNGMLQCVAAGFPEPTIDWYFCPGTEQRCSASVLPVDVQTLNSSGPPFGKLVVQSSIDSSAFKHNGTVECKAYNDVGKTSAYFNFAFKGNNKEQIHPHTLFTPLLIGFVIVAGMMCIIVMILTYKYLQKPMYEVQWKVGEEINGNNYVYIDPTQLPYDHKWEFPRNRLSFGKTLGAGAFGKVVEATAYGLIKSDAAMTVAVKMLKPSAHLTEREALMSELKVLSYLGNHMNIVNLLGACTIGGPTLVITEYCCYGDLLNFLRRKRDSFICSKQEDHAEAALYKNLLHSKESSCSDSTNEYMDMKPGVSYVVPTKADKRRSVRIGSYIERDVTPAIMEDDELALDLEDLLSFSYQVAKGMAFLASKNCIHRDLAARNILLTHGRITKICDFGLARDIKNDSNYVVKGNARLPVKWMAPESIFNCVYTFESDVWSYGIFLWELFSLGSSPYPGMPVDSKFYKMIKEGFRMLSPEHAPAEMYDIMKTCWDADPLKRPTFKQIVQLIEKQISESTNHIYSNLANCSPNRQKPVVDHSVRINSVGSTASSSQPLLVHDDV
T1 sequence (P10721 26-976): as the sequence (P10721 26-976 V560G) above, with G535V counted along it
Chain of human P-glycoprotein (P-gp, MDR1) (P08183 whole entry): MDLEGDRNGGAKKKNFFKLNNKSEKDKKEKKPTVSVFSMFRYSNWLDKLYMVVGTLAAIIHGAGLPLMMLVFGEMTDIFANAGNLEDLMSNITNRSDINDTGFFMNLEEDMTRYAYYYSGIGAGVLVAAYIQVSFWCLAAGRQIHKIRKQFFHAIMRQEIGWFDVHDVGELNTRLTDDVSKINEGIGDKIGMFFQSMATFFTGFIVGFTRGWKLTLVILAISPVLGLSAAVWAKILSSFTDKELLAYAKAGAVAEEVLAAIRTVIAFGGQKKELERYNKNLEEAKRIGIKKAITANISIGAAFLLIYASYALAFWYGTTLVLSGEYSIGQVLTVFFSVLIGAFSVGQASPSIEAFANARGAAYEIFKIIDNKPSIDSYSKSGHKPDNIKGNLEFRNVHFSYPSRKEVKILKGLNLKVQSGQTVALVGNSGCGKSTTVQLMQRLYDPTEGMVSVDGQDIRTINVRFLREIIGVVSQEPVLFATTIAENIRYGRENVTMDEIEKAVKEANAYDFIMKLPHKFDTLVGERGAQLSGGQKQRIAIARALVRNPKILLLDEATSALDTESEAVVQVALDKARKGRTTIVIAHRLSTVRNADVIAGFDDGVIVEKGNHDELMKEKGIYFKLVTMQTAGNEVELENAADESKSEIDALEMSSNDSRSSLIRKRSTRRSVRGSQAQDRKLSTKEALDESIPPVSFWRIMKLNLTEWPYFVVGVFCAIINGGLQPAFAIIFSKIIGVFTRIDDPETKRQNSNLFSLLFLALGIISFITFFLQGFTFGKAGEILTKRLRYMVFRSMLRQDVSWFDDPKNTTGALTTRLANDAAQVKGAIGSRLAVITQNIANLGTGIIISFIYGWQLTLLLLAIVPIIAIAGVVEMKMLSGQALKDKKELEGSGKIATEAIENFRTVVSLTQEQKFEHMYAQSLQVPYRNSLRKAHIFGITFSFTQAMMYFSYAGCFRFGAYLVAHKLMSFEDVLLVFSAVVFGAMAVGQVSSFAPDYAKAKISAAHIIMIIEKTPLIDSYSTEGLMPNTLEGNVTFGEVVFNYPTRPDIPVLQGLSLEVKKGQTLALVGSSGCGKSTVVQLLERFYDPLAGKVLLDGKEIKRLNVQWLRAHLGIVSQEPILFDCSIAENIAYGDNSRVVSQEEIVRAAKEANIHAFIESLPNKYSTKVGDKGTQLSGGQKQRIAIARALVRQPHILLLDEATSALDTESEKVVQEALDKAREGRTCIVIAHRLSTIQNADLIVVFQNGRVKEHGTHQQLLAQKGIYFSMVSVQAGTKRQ

What is called pIC50 is the negative decadic logarithm of the IC50, by convention in mol/L. On to `COC(=O)N1CC(c2cnn(-c3ccc(C)c(NC(=O)c4cnn5ccc(N6CCN(C)CC6)cc45)c3)n2)C1` [Example 81, methyl 3-(2-(4-methyl-3-(5-(4-methylpiperazin-1-yl)pyrazolo[1,5-a]pyridine-3-carboxamido)phenyl)-2H-1,2,3-triazol-4-yl)azetidine-1-carboxylate], for which the pIC50 against wild type c-kit [1] was 7.72; on Exon 11 KIT, 8.19.

On to `COC[C@@H](O)Cn1cc(-c2ccn3ncc(C(=O)Nc4cc(-c5nnn(C6CC6)n5)ccc4Cl)c3c2)cn1` [Example 237, (S)-N-(2-chloro-5-(2-cyclopropyl-2H-tetrazol-5-yl)phenyl)-5-(1-(2-hydroxy-3-methoxypropyl)-1H-pyrazol-4-yl)pyrazolo[1,5-a]pyridine-3-carboxamide], for which the pIC50 at wild type c-kit [1] was 9.30; in series [3], 7.81; on Exon 11 KIT, 9.15. Further, in series [2], the efflux ratio at 2 h, 1 µM is 3.2.

Regarding `COCCOC[C@H](O)Cn1cc(-c2ccn3ncc(C(=O)Nc4cc(-c5nnn(C6CC6)n5)c(F)cc4Cl)c3c2)c(C)n1` [Example 286, (R)—N-(2-chloro-5-(2-cyclopropyl-2H-tetrazol-5-yl)-4-fluorophenyl)-5-(1-(2-hydroxy-3-(2-methoxyethoxy)propyl)-3-methyl-1H-pyrazol-4-yl)pyrazolo[1,5-a]pyridine-3-carboxamide], the pIC50 is 9.52 on wild type c-kit [1], 7.37 in series [3] and 6.32 in the series on NIH3T3 parental cells.

Take `Cc1cc(F)c(-c2nnn(C3CC3)n2)cc1NC(=O)c1cnn2ccc(-c3cn(CC(C)(C)O)nc3C)cc12` [Example 239, N-(5-(2-cyclopropyl-2H-tetrazol-5-yl)-4-fluoro-2-methylphenyl)-5-(1-(2-hydroxy-2-methylpropyl)-3-methyl-1H-pyrazol-4-yl)pyrazolo[1,5-a]pyridine-3-carboxamide]: the pIC50 on wild type c-kit [1] was 9.52; on Exon 11 KIT, 9.05. In addition, the efflux ratio at 2 h, 1 µM in series [2] stood at 13.2.

As to `Cc1nn(C[C@H](C)O)cc1-c1ccn2ncc(C(=O)Nc3cc(-c4nnn(C5CC5)n4)ccc3Cl)c2c1` [Example 278, (S)—N-(2-chloro-5-(2-cyclopropyl-2H-tetrazol-5-yl)phenyl)-5-(1-(2-hydroxypropyl)-3-methyl-1H-pyrazol-4-yl)pyrazolo[1,5-a]pyridine-3-carboxamide], the pIC50 is 9.52 on wild type c-kit [1] and 9.70 on Exon 11 KIT. Further, in series [2], the efflux ratio at 2 h, 1 µM stood at 3.6.

Consider `COCCNc1ccn2ncc(C(=O)Nc3cc(-c4nnn(C5CN(C(=O)OC)C5)n4)ccc3C)c2c1` [Example 148, methyl 3-(5-(3-(5-((2-methoxyethyl)amino)pyrazolo[1,5-a]pyridine-3-carboxamido)-4-methylphenyl)-2H-tetrazol-2-yl)azetidine-1-carboxylate], for which the pIC50 against wild type c-kit [1] is 7.46; at Exon 11 KIT, 9.00. Further, in series [2], the efflux ratio at 2 h, 1 µM amounted to 24.9.

`Cc1ccc(-c2nnn(C3CN(S(=O)(=O)CCO)C3)n2)cc1NC(=O)c1cnn2ccccc12` [Example 203, N-(5-(2-(1-((2-hydroxyethyl)sulfonyl)azetidin-3-yl)-2H-tetrazol-5-yl)-2-methylphenyl)pyrazolo[1,5-a]pyridine-3-carboxamide] gave a pIC50 against wild type c-kit [4] of 7.78. Besides, the efflux ratio at 2 h, 1 µM in series [2] was found to be 12.8.

As to `Cc1ccc(-c2nnn(C3CC(F)(F)C3)n2)cc1NC(=O)c1cnn2ccc(-c3cn[nH]c3)cc12` [Example 198, N-(5-(2-(3,3-difluorocyclobutyl)-2H-tetrazol-5-yl)-2-methylphenyl)-5-(1H-pyrazol-4-yl)pyrazolo[1,5-a]pyridine-3-carboxamide], the pIC50 against wild type c-kit [4] is 8.77. In addition, the efflux ratio at 2 h, 1 µM in series [2] worked out at 16.6.

`Cc1ccc(-c2nnn(C[C@H]3CC3(F)F)n2)cc1NC(=O)c1cnn2ccc(-c3cn[nH]c3)cc12` (single isomer, unassigned) [Example 55, (R)—N-(5-(2-((2,2-difluorocyclopropyl)methyl)-2H-tetrazol-5-yl)-2-methylphenyl)-5-(1H-pyrazol-4-yl)pyrazolo[1,5-a]pyridine-3-carboxamide or (S)—N-(5-(2-((2,2-difluorocyclopropyl)methyl)-2H-tetrazol-5-yl)-2-methylphenyl)-5-(1H-pyrazol-4-yl)pyrazolo[1,5-a]pyridine-3-carboxamide] had a pIC50 on wild type c-kit [4] of 8.96. In addition, the efflux ratio at 2 h, 1 µM in series [2] is 19.7.

With `Cc1nn(C[C@H](C)O)cc1-c1ccn2ncc(C(=O)Nc3cc(-c4nnn(C5CC5)n4)c(F)cc3Cl)c2c1` [Example 280, (S)—N-(2-chloro-5-(2-cyclopropyl-2H-tetrazol-5-yl)-4-fluorophenyl)-5-(1-(2-hydroxypropyl)-3-methyl-1H-pyrazol-4-yl)pyrazolo[1,5-a]pyridine-3-carboxamide], the pIC50 against wild type c-kit [1] was 9.70; in series [3] it was 8.00; in the series on NIH3T3 parental cells, 6.38.

In turn, `Cc1ccc(-c2nnn(C3CN(S(C)(=O)=O)C3)n2)cc1NC(=O)c1cnn2ccc(C3CC3)cc12` [Example 50, 5-cyclopropyl-N-(2-methyl-5-(2-(1-(methylsulfonyl)azetidin-3-yl)-2H-tetrazol-5-yl)phenyl)pyrazolo[1,5-a]pyridine-3-carboxamide] had a pIC50 at wild type c-kit [4] of 8.10. Also, the efflux ratio at 2 h, 1 µM in series [2] was 6.5.

For the molecule `CCn1nnc(-c2ccc(Cl)c(NC(=O)c3cnn4ccc(-c5cn(C[C@H](O)COC)nc5C)cc34)c2)n1` [Example 284, (S)—N-(2-chloro-5-(2-ethyl-2H-tetrazol-5-yl)phenyl)-5-(1-(2-hydroxy-3-methoxypropyl)-3-methyl-1H-pyrazol-4-yl)pyrazolo[1,5-a]pyridine-3-carboxamide], the negative-log IC50 (pIC50) on wild type c-kit [1] is 9.70; in series [3], 8.12; with NIH3T3 parental cells it was 6.79; at Exon 11 KIT, 9.70.

In turn, `COc1ccn2ncc(C(=O)Nc3cc(-c4nnn(C5CN(S(C)(=O)=O)C5)n4)ccc3C)c2c1` [Example 153, 5-methoxy-N-(2-methyl-5-(2-(1-(methylsulfonyl)azetidin-3-yl)-2H-tetrazol-5-yl)phenyl)pyrazolo[1,5-a]pyridine-3-carboxamide] gave a pIC50 on wild type c-kit [4] of 8.35. Besides, the efflux ratio at 2 h, 1 µM in series [2] was 3.9.

On wild type c-kit [4], `Cc1ccc(-c2nnn(C)n2)cc1NC(=O)c1cnn2ccc(-c3cn[nH]c3)cc12` [Example 43, N-(2-methyl-5-(2-methyl-2H-tetrazol-5-yl)phenyl)-5-(1H-pyrazol-4-yl)pyrazolo[1,5-a]pyridine-3-carboxamide] gave a pIC50 of 8.27. Further, the efflux ratio at 2 h, 1 µM in series [2] came to 11.9.
